Measured values as given in patent US7521563B2, “Hydroxamic acid derivative and medicine containing the same as active ingredient” (Shizuoka Coffein Co., Ltd., priority 2004, dated 2009).

What was measured:
[1] = tested on: IL-6 production; experiment: IL-6 production suppression test in LPS-stimulated PMA-differentiated THP-1 cells (ELISA); format: cell-based, Human; conditions: for IL-6 production suppression rate (%): THP-1 cells, LPS 1 μg/mL, 24 hours
Description: (§1) Tests were conducted with reference to the method by G. Lozanski et al. (J. Rheumatol., Vol. 19, 921-926, 1992).
(§2) Using a 10% fetal calf serum (FCS)-added PRMI-1640 medium, THP-1 cells (Dainippon Pharmaceutical Co., Ltd.) were prepared in an amount of 10^6/mL, and inoculated on a 48-well microplate in an amount of 500 μL per well. 10^−8 M of phorbol 12-myristate 13-acetate (PMA) was added to the wells, and the cells were cultured for 24 hours to induce differentiation of the cells to macrophages.
(§3) 50 μL of test substance diluting liquid or DMSO diluting liquid was added to the wells, and the cells were preincubated by a CO2 incubator at 37° C. for 30 minutes. 5 μL of LPS (111 μg/mL) (final concentration: 1 μg/mL) was added to each well. Furthermore, wells with no LPS added to the DMSO diluting liquid were set. After the cells were cultured for 24 hours, they were centrifuged to take cell supernatants, and the IL-6 level was measured using the Human IL-6 ELISA kit (Biosource International), and TNFα was measured using the Human tumor necrosis factor-α ELISA kit (Biosource International), by the enzyme-linked immunosorbent assay (ELISA).

[2] = tested on: TNFα production; experiment: TNFα production suppression test in LPS-stimulated PMA-differentiated THP-1 cells (ELISA); format: cell-based, Human; conditions: for TNFα production suppression rate (%): THP-1 cells, LPS 1 μg/mL, 24 hours
Description: as §1, §2, §3

[3] = tested on: THP-1 cells; experiment: Evaluation of cytotoxicity by the MTT method; format: cell-based; conditions: DMSO well = 100%
Description: Cytotoxicity was evaluated by the MTT method.
Specifically, a 0.5 mg/mL solution of 3-(4,5-dimethyl-2-thiazolyl)-2,5-diphenyl-2H-tetrazolium bromide (MTT, Sigma) prepared in a 10% fetal calf serum (FCS)-added PRMI-1640 medium was added in an amount of 100 μL per well to cells with culture supernatants removed in test example 1, and the cells were cultured for 3 hours. The culture solution was removed by centrifugal separation, 100 μL of methanol was added to each well, and the absorbance was measured at a wavelength of 570 nm after cytolysis.
The absorbances for the well to which the DMSO diluting liquid was added and the well to which no LPS was added are 100% and 0%, respectively, the absorbances for wells of different doses of test substances are expressed as percentages, and the results are shown in Table 4.

[4] = range of concentrations 1×10^−5-−9 M
[5] = active concentration 1 × 10^−6 M
[6] = concentration 1 × 10^−9 M (first column)
[7] = concentration 1 × 10^−9 M (second column, as printed)
[8] = active concentration 1 × 10^−7 M

SMILES | IL-6 production suppressing activity [1, 4] | TNFα production suppressing activity [2, 4] | TNFα production suppression rate (%) [2, 5] [%] | Cytotoxicity test: absorbance (570 nm, MTT) expressed as percentage ([3]; concentration 1 × 10^−5 M) [%] | Cytotoxicity test: absorbance (570 nm, MTT) expressed as percentage ([3]; concentration 1 × 10^−6 M) [%] | Cytotoxicity test: absorbance (570 nm, MTT) expressed as percentage ([3]; concentration 1 × 10^−7 M) [%] | Cytotoxicity test: absorbance (570 nm, MTT) expressed as percentage [3, 6] [%] | Cytotoxicity test: absorbance (570 nm, MTT) expressed as percentage [3, 7] [%] | IL-6 production suppression rate (%) [1, 5] [%] | TNFα production suppression rate (%) [2, 8] [%] | IL-6 production suppression rate (%) [1, 8] [%]
O=C(O)CCCCCc1nc(-c2ccccc2)c(-c2ccccc2)o1 [4,5-diphenyl-2-oxazolehexanoic acid, reference compound] | no activity | no activity | – | – | – | – | – | – | – | – | –
O=C(CCCCCc1nc(-c2ccccc2)c(-c2ccc(F)cc2)s1)NO [Example 8, 5-(4-fluorophenyl)-N-hydroxy-4-phenyl-2-thiazolehexanamide] | – | – | 40 | 88.9 | 113.7 | 106.7 | 106.7 | 105.3 | – | – | –
O=C(CCCCCc1ncc(-c2ccc(Br)cc2)s1)NO [Example 20, 5-(4-bromophenyl)-N-hydroxy-2-thiazolehexanamide] | – | – | – | 82.3 | 97.6 | 102.0 | 95.6 | 104.0 | 64 | 44 | –
O=C(CCCCCCc1nc(-c2ccccc2)c(-c2ccccc2)o1)NO [Example 24, N-hydroxy-4,5-diphenyl-2-oxazoleheptanamide] | – | – | – | 83.8 | 91.8 | 88.1 | 96.4 | 83.9 | – | – | 50
O=C(CCCCCc1nc(-c2ccccc2)c(-c2ccccc2)o1)NO [Example 25, N-hydroxy-4,5-diphenyl-2-oxazolehexanamide] | – | – | – | 78.9 | 83.6 | 87.6 | 85.8 | 91.9 | – | – | 50
